Laboratory results as given in article PMC10223552 (Pharmaceuticals, 2023).

What was measured:
Assay type in all cases: cell-based
[1] = system: MCF-7 breast cancer cells; assay: cells; details: Homo sapiens, MCF7; 48 h treatment; read-out: MTT IC50 MCF-7
Protocol: (§1) The cell lines were obtained from American Type Culture Collection (ATCC, Manassas, VA, USA) and were cultured at 37 °C in the presence of 5% CO2 in the atmosphere. […] The cell’s morphology was examined under a Nikon Eclipse Ti inverted phase contrast microscope (Nikon, Tokyo, Japan). The authenticity of tested cell lines was verified by short tandem repeat (STR) genotyping in the Department of Forensic Medicine (Medical University of Lublin, Lublin, Poland).
(§2) Cell viability based on metabolic activity was evaluated with the MTT colorimetric test based on the ability of viable cells to cause the transformation of tetrazolium salts MTT (3-[4,5-dimethylthiazol-2-yl]-2,5)diphenyltetrazolium bromide) into purple formazan, by cellular dehydrogenases. The cells were seeded into 96-well plates at a concentration of 2 × 10^5 cells/mL. […] Doxorubicin was used for comparison as the standard chemotherapeutic agent used in breast cancer treatment. After 48 h of incubation cell cultures were supplemented with 20 µL of 5 mg/mL MTT (Thermofisher, Waltham, MA, USA) stock in PBS (Corning, NY, USA), and the incubation was continued for 4 h at 37 °C. Next, the medium with MTT was removed, and obtained crystals were dissolved in 200 µL of DMSO (dimethyl sulfoxide, Avantor, Gliwice, Poland). The solution absorbency was measured at 570 nm, using a PowerWave™ xs microplate spectrophotometer (BioTek Instruments, Winooski, VT, USA). The experiment was performed three times with three replicates for each concentration of tested compounds.

[2] = system: MDA-MB-231 breast cancer cells; assay: cells; details: Homo sapiens, MDA-MB-231; 48 h treatment; read-out: MTT IC50 MDA-MB-231
Protocol: as §1, §2

[3] = system: BJ normal skin fibroblast; assay: MTT cytotoxicity test, BJ normal fibroblasts; details: Homo sapiens, 48 h treatment
Protocol: The studies were conducted on two breast cancer cell lines—MCF-7 (ER+PR+/HER2-negative) and MDA-MB-231 (ER/PR/HER2-negative) and human normal fibroblast cell line BJ. The cell lines were obtained from American Type Culture Collection (ATCC, Manassas, VA, USA) and were cultured at 37 °C in the presence of 5% CO2 in the atmosphere. The culture media (Eagle’s Minimum Essential Medium for MCF-7 and BJ, Leibovitz’s L-15 Medium for MDA-MB-231, Corning, NY, USA), was supplemented with 10% fetal bovine serum. The cell’s morphology was examined under a Nikon Eclipse Ti inverted phase contrast microscope (Nikon, Tokyo, Japan). The authenticity of tested cell lines was verified by short tandem repeat (STR) genotyping in the Department of Forensic Medicine (Medical University of Lublin, Lublin, Poland).
Cell viability based on metabolic activity was evaluated with the MTT colorimetric test based on the ability of viable cells to cause the transformation of tetrazolium salts MTT (3-[4,5-dimethylthiazol-2-yl]-2,5)diphenyltetrazolium bromide) into purple formazan, by cellular dehydrogenases. The cells were seeded into 96-well plates at a concentration of 2 × 10^5 cells/mL. Once 70–80% confluency was reached, tested compounds were added: ADS10310 and ADS1017 in concentrations ranging from 1 to 250 µM or DMSO as the vehicle in control cultures for the next 48 h (max. DMSO concentration <0.5%). Doxorubicin was used for comparison as the standard chemotherapeutic agent used in breast cancer treatment. After 48 h of incubation cell cultures were supplemented with 20 µL of 5 mg/mL MTT (Thermofisher, Waltham, MA, USA) stock in PBS (Corning, NY, USA), and the incubation was continued for 4 h at 37 °C. […] The solution absorbency was measured at 570 nm, using a PowerWave™ xs microplate spectrophotometer (BioTek Instruments, Winooski, VT, USA). […] IC50 values were determined using the AAT Bioquest IC50 calculator (AAT Bioquest, Inc. Quest Graph™ EC50 Calculator. https://www.aatbio.com/tools/ec50-calculator) (accessed on 6 September 2022).

SMILES: COc1cccc2c1C(=O)c1c(O)c3c(c(O)c1C2=O)C[C@@](O)(C(=O)CO)C[C@@H]3O[C@H]1C[C@H](N)[C@H](O)[C@H](C)O1 [Doxorubicin, reference compound]
- IC50 [1]: 2120 nM
- IC50 [2]: 1850 nM
- IC50 [3]: 4870 nM
